Values of other authors in patent US7378109B2, “Pharmaceutical composition for improving palatability of drugs and process for preparation thereof” (Council of Scientific and Industrial Research, priority 2004, dated 2008).

Details: humans, oral

**Q.** For `CO/N=C(\C(=O)N[C@@H]1C(=O)N2C(C(=O)OC(C)OC(C)=O)=C(COC(N)=O)CS[C@H]12)c1ccco1` (stereo partly shown) [Cefuroxime axetil], which bioavailability is on record?
**A.** The bioavailability was 32-50%.
